Experimental data taken from ChEMBL document CHEMBL4020849, “4,6-Diaminopyrimidines as Highly Preferred Troponin I-Interacting Kinase (TNNI3K) Inhibitors” (J Med Chem, 2018).
Values belong to the compound of their own block, whether it stands above or below them.

What was measured:
[1] = biological target: T1, Serine/threonine-protein kinase TNNI3K (Homo sapiens, UniProt Q59H18); experiment: Inhibition of human Myc-tagged TNNI3K autophosphorylation expressed in HEKMSR2 cells after 30 mins by DELFIA; type: cell-based
T1 sequence (Q59H18 whole entry): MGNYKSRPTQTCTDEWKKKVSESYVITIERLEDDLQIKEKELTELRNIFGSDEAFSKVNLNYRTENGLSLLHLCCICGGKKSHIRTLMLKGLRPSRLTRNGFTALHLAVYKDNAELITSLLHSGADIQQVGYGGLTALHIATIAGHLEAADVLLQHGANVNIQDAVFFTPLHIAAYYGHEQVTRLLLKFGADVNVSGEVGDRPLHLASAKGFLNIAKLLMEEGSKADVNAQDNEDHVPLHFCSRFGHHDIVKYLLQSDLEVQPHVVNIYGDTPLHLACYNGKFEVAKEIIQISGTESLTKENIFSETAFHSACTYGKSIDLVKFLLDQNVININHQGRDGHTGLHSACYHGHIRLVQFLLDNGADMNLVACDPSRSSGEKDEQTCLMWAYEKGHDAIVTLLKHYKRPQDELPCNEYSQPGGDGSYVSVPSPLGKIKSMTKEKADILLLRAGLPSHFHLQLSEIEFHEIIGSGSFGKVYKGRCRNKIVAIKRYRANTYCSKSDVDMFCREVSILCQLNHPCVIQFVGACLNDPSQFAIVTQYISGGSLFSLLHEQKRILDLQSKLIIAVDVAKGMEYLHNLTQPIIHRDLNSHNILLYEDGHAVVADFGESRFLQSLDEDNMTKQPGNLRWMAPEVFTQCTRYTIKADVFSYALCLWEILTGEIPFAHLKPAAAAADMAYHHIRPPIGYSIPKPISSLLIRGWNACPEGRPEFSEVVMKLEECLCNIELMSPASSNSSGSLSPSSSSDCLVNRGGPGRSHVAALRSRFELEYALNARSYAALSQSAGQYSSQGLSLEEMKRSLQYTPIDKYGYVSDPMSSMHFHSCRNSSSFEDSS

[2] = biological target: Epidermal growth factor receptor (Homo sapiens, UniProt P00533); experiment: Inhibition of EGFR (unknown origin)
Sequence of Epidermal growth factor receptor (P00533 whole entry, the tested form may be a part): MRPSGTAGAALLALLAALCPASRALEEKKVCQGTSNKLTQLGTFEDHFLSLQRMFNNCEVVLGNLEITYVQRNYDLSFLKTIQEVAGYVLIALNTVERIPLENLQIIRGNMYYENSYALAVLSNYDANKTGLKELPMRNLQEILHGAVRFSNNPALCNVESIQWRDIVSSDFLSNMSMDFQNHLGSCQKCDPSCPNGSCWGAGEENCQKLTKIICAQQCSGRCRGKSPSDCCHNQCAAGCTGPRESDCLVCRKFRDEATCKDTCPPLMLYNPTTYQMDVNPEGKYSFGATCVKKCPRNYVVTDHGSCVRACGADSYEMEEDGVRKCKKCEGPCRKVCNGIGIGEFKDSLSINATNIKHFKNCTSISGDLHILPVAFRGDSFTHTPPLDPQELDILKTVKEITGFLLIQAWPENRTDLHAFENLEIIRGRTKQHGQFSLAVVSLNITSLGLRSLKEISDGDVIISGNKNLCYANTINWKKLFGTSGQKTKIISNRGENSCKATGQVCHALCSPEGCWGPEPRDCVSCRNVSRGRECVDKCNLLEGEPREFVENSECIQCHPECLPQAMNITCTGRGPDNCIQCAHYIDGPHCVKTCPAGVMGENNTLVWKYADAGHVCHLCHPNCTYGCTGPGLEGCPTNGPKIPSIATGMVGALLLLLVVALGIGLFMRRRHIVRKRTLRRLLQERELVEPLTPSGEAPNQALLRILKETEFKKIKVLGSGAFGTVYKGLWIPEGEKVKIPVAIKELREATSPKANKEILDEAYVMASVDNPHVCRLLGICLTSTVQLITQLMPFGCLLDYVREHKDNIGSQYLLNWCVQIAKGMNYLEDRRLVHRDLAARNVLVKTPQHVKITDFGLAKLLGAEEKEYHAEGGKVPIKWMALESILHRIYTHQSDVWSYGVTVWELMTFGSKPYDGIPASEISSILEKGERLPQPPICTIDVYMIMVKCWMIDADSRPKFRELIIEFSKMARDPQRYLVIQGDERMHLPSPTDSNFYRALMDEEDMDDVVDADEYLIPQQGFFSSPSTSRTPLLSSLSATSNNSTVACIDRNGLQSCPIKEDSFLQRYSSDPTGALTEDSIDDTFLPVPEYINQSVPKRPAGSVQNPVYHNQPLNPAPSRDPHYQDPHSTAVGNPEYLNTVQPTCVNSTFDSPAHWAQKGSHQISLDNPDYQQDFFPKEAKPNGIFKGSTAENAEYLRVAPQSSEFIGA

[3] = biological target: T1, Serine/threonine-protein kinase TNNI3K; experiment: Inhibition of 5-({[2-({[3-({4-[(5-hydroxy-2-methylphenyl)amino]-2-pyrimidinyl}amino)phenyl]carbonyl}amino)-ethyl]amino}carbonyl)-2-(6-hydroxy-3-oxo-3H-xanthen-9-yl)benzoic acid binding to human full length His/MBP-fused TNNI3K expressed in baculovirus expression system after 60 mins by fluorescence polarization assay
[4] = Clearance in Sprague-Dawley rat plasma at 1 mg/kg, iv administered as 30 mins infusion by LC-MS/MS analysis; type: ADME, organism-based
[5] = tested on: Rattus norvegicus; experiment: Dose normalized AUC in Sprague-Dawley rat plasma at 2 mg/kg, po administered as gastric bolus dose by LC-MS/MS analysis; type: ADME, organism-based; conditions: in vivo
[6] = Oral bioavailability in Sprague-Dawley rat plasma at 2 mg/kg administered as gastric bolus dose by LC-MS/MS analysis; type: ADME, organism-based
[7] = biological target: Serine/threonine-protein kinase B-raf (Homo sapiens, UniProt P15056); experiment: Inhibition of full length His6-tagged BRAF (unknown origin) expressed in baculovirus expression system assessed as reduction in MEK phosphorylation by measuring ADP production by BRAMA
Sequence of Serine/threonine-protein kinase B-raf (P15056 whole entry, the tested form may be a part): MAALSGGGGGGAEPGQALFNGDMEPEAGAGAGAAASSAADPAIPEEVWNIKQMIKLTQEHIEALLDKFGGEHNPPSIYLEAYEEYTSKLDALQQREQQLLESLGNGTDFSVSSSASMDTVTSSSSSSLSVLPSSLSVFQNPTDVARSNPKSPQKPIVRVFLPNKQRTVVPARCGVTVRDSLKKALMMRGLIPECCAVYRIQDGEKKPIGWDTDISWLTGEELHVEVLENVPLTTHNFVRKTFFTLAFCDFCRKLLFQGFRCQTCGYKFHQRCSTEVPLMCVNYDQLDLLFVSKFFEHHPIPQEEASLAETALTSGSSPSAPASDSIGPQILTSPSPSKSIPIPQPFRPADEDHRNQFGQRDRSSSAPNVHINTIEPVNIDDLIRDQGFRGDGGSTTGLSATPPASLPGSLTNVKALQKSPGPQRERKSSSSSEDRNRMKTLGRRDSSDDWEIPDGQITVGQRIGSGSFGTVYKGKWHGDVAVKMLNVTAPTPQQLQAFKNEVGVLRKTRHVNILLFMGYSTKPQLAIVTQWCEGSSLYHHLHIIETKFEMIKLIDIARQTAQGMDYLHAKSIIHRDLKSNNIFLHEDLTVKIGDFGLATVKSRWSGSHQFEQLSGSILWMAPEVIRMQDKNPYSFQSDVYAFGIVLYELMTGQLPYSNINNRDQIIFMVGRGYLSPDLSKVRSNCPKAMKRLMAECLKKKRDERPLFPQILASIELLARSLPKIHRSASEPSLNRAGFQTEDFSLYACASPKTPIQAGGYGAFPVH

[8] = Selectivity index, ratio of IC50 for full length His6-tagged BRAF (unknown origin) expressed in baculovirus expression system to IC50 for human full length His/MBP-fused TNNI3K expressed in baculovirus expression system
[9] = Volume of distribution at steady state in Sprague-Dawley rat plasma at 2 mg/kg, po administered as gastric bolus dose or 1 mg/kg, iv administered as 30 mins infusion by LC-MS/MS analysis; type: ADME, organism-based; conditions: read-out: Vdss
[10] = Half life in Sprague-Dawley rat plasma at 2 mg/kg, po administered as gastric bolus dose or 1 mg/kg, iv administered as 30 mins infusion by LC-MS/MS analysis; type: ADME, organism-based
[11] = tested on: Blood; experiment: Drug uptake in mouse blood at 100 mg/kg/day administered through diet; type: ADME, organism-based; conditions: in vivo, read-out: Drug uptake
[12] = tested on: Blood; experiment: Unbound drug level in mouse blood at 100 mg/kg/day administered through diet; type: ADME, organism-based; conditions: in vivo
[13] = tested on: Heart; experiment: Drug uptake in mouse heart at 100 mg/kg/day administered through diet; type: ADME, organism-based; conditions: in vivo, read-out: Drug uptake
[14] = Fraction unbound in mouse plasma; type: ADME, cell-free
[15] = Selectivity index, ratio of IC50 for EGFR (unknown origin) to IC50 for human full length His/MBP-fused TNNI3K expressed in baculovirus expression system

Structure (SMILES): CNS(=O)(=O)c1cccc(Nc2cc(Nc3cccc([N+](=O)[O-])c3)ncn2)c1
IC50 [1]: 0.5 µM | IC50 [2]: 0.004 µM

Structure (SMILES): CNS(=O)(=O)c1cccc(Nc2cc(Nc3ccc(S(C)(=O)=O)cc3)ncn2)c1
IC50 [3]: 0.079 µM

Structure (SMILES): CNS(=O)(=O)c1cccc(Nc2cc(Nc3ccc(C(F)(F)F)cc3)ncn2)c1
IC50 [3]: 0.079 µM

Structure (SMILES): CNS(=O)(=O)c1cccc(Nc2cc(Nc3cccc(C(C)C)c3)ncn2)c1
IC50 [3]: 0.05 µM | IC50 [2]: 0.025 µM | Ratio IC50 [15]: 0.5

Structure (SMILES): CNS(=O)(=O)c1cccc(Nc2cc(Nc3ccc(C(F)(F)F)cn3)ncn2)c1
IC50 [3]: 0.016 µM

Structure (SMILES): CNS(=O)(=O)c1cccc(Nc2cc(Nc3cccc(OC)c3)ncn2)c1
IC50 [3]: 0.063 µM

Structure (SMILES): CNS(=O)(=O)c1ccc(S(=O)(=O)C(C)C)c(Nc2cc(Nc3ccc(Cl)cn3)ncn2)c1
IC50 [3]: ≤ 0.01 µM | AUC/dose [5]: 0.27 kg·h/L | IC50 [7]: 0.5 µM | Ratio IC50 [8]: >=50

Structure (SMILES): CNS(=O)(=O)c1cccc(Nc2cc(Nc3cccc(Br)c3)ncn2)c1
IC50 [3]: 0.079 µM | clearance [4]: 3.18 L/h/kg | AUC/dose [5]: 0.1 kg·h/L | bioavailability [6]: 33%

Structure (SMILES): CNS(=O)(=O)c1ccc(OC(F)(F)F)c(Nc2cc(Nc3ccc(Cl)cn3)ncn2)c1
IC50 [1]: 0.063 µM | clearance [4]: 0.72 L/h/kg | AUC/dose [5]: 0.91 kg·h/L | bioavailability [6]: 67%

Structure (SMILES): CNS(=O)(=O)c1ccc(F)c(Nc2cc(Nc3ccc(Cl)cc3)ncn2)c1
AUC/dose [5]: 1.1 kg·h/L

Structure (SMILES): CNS(=O)(=O)c1cccc(Nc2cc(Nc3ccccc3C)ncn2)c1
IC50 [3]: 1.3 µM

Structure (SMILES): CNS(=O)(=O)c1cccc(Nc2cc(Nc3cccc(Cl)c3)ncn2)c1
IC50 [3]: 0.079 µM | clearance [4]: 3.12 L/h/kg | AUC/dose [5]: 0.064 kg·h/L | bioavailability [6]: 20%

Structure (SMILES): CNS(=O)(=O)c1cccc(Nc2cc(Nc3cccc(S(=O)(=O)NC)c3)ncn2)c1
IC50 [3]: 0.079 µM | IC50 [2]: 1.6 µM | Ratio IC50 [15]: 20

Structure (SMILES): CNS(=O)(=O)c1ccc(S(C)(=O)=O)c(Nc2cc(Nc3ccc(Cl)cn3)ncn2)c1
IC50 [3]: 0.013 µM | AUC/dose [5]: 0.76 kg·h/L | IC50 [7]: 0.2 µM | Ratio IC50 [8]: 15

Structure (SMILES): CNS(=O)(=O)c1cccc(Nc2cc(Nc3ccccc3)ncn2)c1
IC50 [3]: 0.063 µM

Structure (SMILES): CNS(=O)(=O)c1ccc(OCC(F)(F)F)c(Nc2cc(Nc3ccc(Cl)cc3)ncn2)c1
clearance [4]: 1.2 L/h/kg | AUC/dose [5]: 0.32 kg·h/L | bioavailability [6]: 37%

Structure (SMILES): CNS(=O)(=O)c1cccc(Nc2cc(N(C)c3cccc(C)c3)ncn2)c1
IC50 [3]: 2 µM | IC50 [2]: 0.02 µM | Ratio IC50 [15]: 0.01

Structure (SMILES): CNc1cc(Nc2cccc(S(=O)(=O)NC)c2)ncn1
IC50 [3]: 0.8 µM

Structure (SMILES): CNS(=O)(=O)c1cccc(Nc2ccnc(Nc3cccc(C)c3)c2)c1
IC50 [3]: 5 µM

Structure (SMILES): CNS(=O)(=O)c1ccc(S(=O)(=O)C(C)(C)C)c(Nc2cc(Nc3ccc(Cl)cn3)ncn2)c1
IC50 [3]: ≤ 0.01 µM | AUC/dose [5]: 0.076 kg·h/L | IC50 [7]: 2 µM | Ratio IC50 [8]: >=200

Structure (SMILES): CNS(=O)(=O)c1cccc(Nc2cc(Nc3cccc(S(C)(=O)=O)c3)ncn2)c1
IC50 [3]: 0.2 µM

Structure (SMILES): CNS(=O)(=O)c1cccc(Nc2cc(Nc3ccc(C)cc3)ncn2)c1
IC50 [3]: 0.079 µM

Structure (SMILES): CNS(=O)(=O)c1ccc(OC(F)(F)F)c(Nc2cc(Nc3ccc(Cl)cc3)ncn2)c1
IC50 [1]: 0.32 µM | clearance [4]: 0.96 L/h/kg | AUC/dose [5]: 0.86 kg·h/L | bioavailability [6]: 84%

Structure (SMILES): CNS(=O)(=O)c1cccc(Nc2ccnc(Nc3cccc(C)c3)n2)c1
IC50 [3]: 0.63 µM

The next lines start with results.

IC50 [3]: 0.02 µM
Structure (SMILES): CNS(=O)(=O)c1cccc(Nc2ncnc(Nc3cccc(C)c3)n2)c1

clearance [4]: 1.56 L/h/kg | AUC/dose [5]: 0.69 kg·h/L | bioavailability [6]: 100%
Structure (SMILES): CNS(=O)(=O)c1ccc(OC)c(Nc2cc(Nc3ccc(Cl)cc3)ncn2)c1

IC50 [3]: ≤ 0.01 µM | IC50 [1]: 0.008 µM | IC50 [2]: > 25 µM | clearance [4]: 0.84 L/h/kg | AUC/dose [5]: 0.56 kg·h/L | bioavailability [6]: 48% | IC50 [7]: 0.25 µM | Vd [9]: 1.9 L/kg | half-life [10]: 2.3 h | concentration [11]: 0.4 to 1.6 µM | Drug uptake(free) [12]: 14 to 56 nM | concentration [13]: 1.1 µM | fraction unbound [14]: 0.035
Structure (SMILES): CCS(=O)(=O)c1ccc(S(=O)(=O)NC)cc1Nc1cc(Nc2ccc(Cl)cn2)ncn1
Ratio IC50 [8]: >=25

IC50 [3]: 0.02 µM | IC50 [2]: 0.63 µM | clearance [4]: 0.96 L/h/kg | AUC/dose [5]: 0.67 kg·h/L | bioavailability [6]: 65%
Structure (SMILES): CNS(=O)(=O)c1cccc(Nc2cc(Nc3ccc(Cl)cn3)ncn2)c1
Ratio IC50 [15]: 32

IC50 [3]: 0.05 µM
Structure (SMILES): CNS(=O)(=O)c1cccc(Nc2ncnc(Nc3ccc(Cl)cc3)n2)c1

IC50 [3]: 0.079 µM | clearance [4]: 3.12 L/h/kg | AUC/dose [5]: 0.096 kg·h/L | bioavailability [6]: 30%
Structure (SMILES): CNS(=O)(=O)c1ccc(N(C)C)c(Nc2cc(Nc3ccc(Cl)cc3)ncn2)c1

IC50 [3]: ≤ 0.01 µM | clearance [4]: 0.444 L/h/kg | AUC/dose [5]: 2.3 kg·h/L | bioavailability [6]: 99% | IC50 [7]: 0.013 µM
Structure (SMILES): CNS(=O)(=O)c1ccc(OCC(F)(F)F)c(Nc2cc(Nc3ccc(Cl)cn3)ncn2)c1

IC50 [3]: 0.63 µM
Structure (SMILES): CNS(=O)(=O)c1cccc(Nc2cc(Nc3ccccc3F)ncn2)c1

IC50 [3]: ≤ 0.01 µM | clearance [4]: 0.594 L/h/kg | AUC/dose [5]: 1.3 kg·h/L | bioavailability [6]: 75% | IC50 [7]: 0.02 µM
Structure (SMILES): CNS(=O)(=O)c1ccc(OC)c(Nc2cc(Nc3ccc(Cl)cn3)ncn2)c1
Ratio IC50 [8]: >=2

IC50 [3]: 0.079 µM | IC50 [2]: 0.013 µM | clearance [4]: 1.38 L/h/kg | AUC/dose [5]: 0.71 kg·h/L | bioavailability [6]: 100%
Structure (SMILES): CNS(=O)(=O)c1cccc(Nc2cc(Nc3ccc(Cl)cc3)ncn2)c1

IC50 [3]: 3.2 µM
Structure (SMILES): CNS(=O)(=O)c1cccc(Nc2cc(Nc3ccccc3OC)ncn2)c1

IC50 [3]: 0.032 µM | IC50 [2]: 0.003 µM | clearance [4]: 5.16 L/h/kg | AUC/dose [5]: 0.037 kg·h/L | bioavailability [6]: 19%
Structure (SMILES): CNS(=O)(=O)c1cccc(Nc2cc(Nc3cccc(C)c3)ncn2)c1
Ratio IC50 [15]: 0.1

clearance [4]: 0.27 L/h/kg | AUC/dose [5]: 2.1 kg·h/L | bioavailability [6]: 52%
Structure (SMILES): CNS(=O)(=O)c1ccc(SC)c(Nc2cc(Nc3ccc(Cl)cc3)ncn2)c1

IC50 [3]: 0.16 µM
Structure (SMILES): CNS(=O)(=O)c1cccc(Nc2cc(Nc3ccc(OC)cc3)ncn2)c1

clearance [4]: 0.84 L/h/kg | AUC/dose [5]: 0.7 kg·h/L | bioavailability [6]: 55%
Structure (SMILES): CNS(=O)(=O)c1ccc(Cl)c(Nc2cc(Nc3ccc(Cl)cc3)ncn2)c1

IC50 [3]: 8 µM | IC50 [2]: 2 µM
Structure (SMILES): CNS(=O)(=O)c1cccc(N(C)c2cc(Nc3cccc(C)c3)ncn2)c1
Ratio IC50 [15]: 0.25
